Reference: publication PMC5986654, “Combined HAT/EZH2 modulation leads to cancer-selective cell death” (Oncotarget, 2018)

Columns and labels:
[1] = Mouse terminal IV PK study; type: in vivo; conditions: iv 2 mg/kg, male CD1 mice, plasma
Method: pHarmaCology male CD1 mice in a 5 mL/kg injection volume. Terminal blood samples (> 230 μL) were taken under CO2 from pharmacokinetic analysis (mice–iV, ip pK study) groups of 3 mice at each of 8 time-points post dose (0.083, 0.25, 0.5, 1, 2, 4, 8 and 24 h) and placed into heparinized
Compound was administered both intravenously and tubes. Samples were placed on ice for no longer than 30 intraperitoneally to mice. Blood samples were collected at min before centrifugation (10,000 rpm × 3 min). Plasma 8 time points over 24 hr and plasma analysed by LC-MS/ samples (>100 μL) were collected into fresh tubes and MS to determine the concentration of compound. frozen on dry ice. Number of plasma samples = 24.
The plasma time concentration profile was Consistent IV profiles were obtained, with little calculated with the main PK parameters (Co, AUClast, variability across the time-points (the average profile is t.,VD, and CL). shown in the second spreadsheet). An average half-life of […]
For ip dosing. After formulation assessment, […]
For iv dosing. Compound was dissolved at 0.4 mg/mL. […]

CYP2C19 = molecular target: T1, CYP2C19 (Homo sapiens, UniProt P33261); assay: Cytochrome P450 inhibition, CYP2C19; type: in vitro ADME; conditions: human liver microsomes, probe mephenytoin
T1 construct: from tissue; host or cells: human liver microsomes
T1 sequence (P33261 whole entry): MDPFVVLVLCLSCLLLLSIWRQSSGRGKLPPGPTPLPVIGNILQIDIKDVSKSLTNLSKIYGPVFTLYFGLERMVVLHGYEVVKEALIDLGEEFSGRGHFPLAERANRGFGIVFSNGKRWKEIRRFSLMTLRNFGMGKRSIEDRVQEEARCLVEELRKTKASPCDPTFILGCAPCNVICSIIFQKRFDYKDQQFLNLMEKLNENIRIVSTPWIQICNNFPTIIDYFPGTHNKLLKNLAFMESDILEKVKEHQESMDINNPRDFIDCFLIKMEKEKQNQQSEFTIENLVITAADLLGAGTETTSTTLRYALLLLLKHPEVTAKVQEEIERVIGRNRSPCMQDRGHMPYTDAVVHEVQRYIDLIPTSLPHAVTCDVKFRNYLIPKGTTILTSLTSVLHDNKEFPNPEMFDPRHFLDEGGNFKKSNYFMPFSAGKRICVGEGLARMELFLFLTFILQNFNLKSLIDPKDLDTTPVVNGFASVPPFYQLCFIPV
Method: (§1) This provided a dose of 2 mg free base material/kg when Cytochrome p450 inhibition (5 isoform iC50 administered iv in a 5 mL/kg dosing volume. determination) mouse terminal ip pK study ADME-Tox Cytochrome P450 inhibition of Compound MC2884 was given ip at a dose of 2 mg/kg MC2884 using human liver microsomes as an estimation to a group of 24 normally fed male CD1 mice in a 10 mL/ of in vitro metabolism. kg injection volume. Terminal blood samples (> 230 μL) MC2884 (0.1 μM–25 μM) was incubated with were taken under CO2 from groups of 3 mice at each of 8 human liver microsomes and NADPH in the presence time-points post dose (0.083, 0.25, 0.5, 1, 2, 4, 8 and 24 h) of a cytochrome P450 isoform-specific probe substrate. and placed into heparinized tubes. […]
(§2) All samples were stored at −20° C measuring the formation of a fluorescent metabolite. […]
(§3) Cyp2C19 inhibition (0.1 mg/mL) and NADPH (1 mM) in the presence of the probe substrate midazolam (2.5 μM) for 5 min at Six test compound samples at concentrations 37° C. […] For the CYP1A incubations, the reactions microsomes (0.5 mg/mL) and NADPH (1 mM) in the were terminated by methanol, and the formation of the presence of the probe substrate mephenytoin (25 μM) metabolite, resorufin, was monitored by fluorescence for 60 min at 37° C. […]

CYP3A4 = molecular target: T2, CYP3A4 (Homo sapiens, UniProt P08684); assay: Cytochrome P450 inhibition, CYP3A4; type: in vitro ADME; conditions: probe midazolam (2.5 µM), human liver microsomes, observed only at 25 μM
T2 construct: from tissue; host or cells: human liver microsomes
T2 sequence (P08684 whole entry): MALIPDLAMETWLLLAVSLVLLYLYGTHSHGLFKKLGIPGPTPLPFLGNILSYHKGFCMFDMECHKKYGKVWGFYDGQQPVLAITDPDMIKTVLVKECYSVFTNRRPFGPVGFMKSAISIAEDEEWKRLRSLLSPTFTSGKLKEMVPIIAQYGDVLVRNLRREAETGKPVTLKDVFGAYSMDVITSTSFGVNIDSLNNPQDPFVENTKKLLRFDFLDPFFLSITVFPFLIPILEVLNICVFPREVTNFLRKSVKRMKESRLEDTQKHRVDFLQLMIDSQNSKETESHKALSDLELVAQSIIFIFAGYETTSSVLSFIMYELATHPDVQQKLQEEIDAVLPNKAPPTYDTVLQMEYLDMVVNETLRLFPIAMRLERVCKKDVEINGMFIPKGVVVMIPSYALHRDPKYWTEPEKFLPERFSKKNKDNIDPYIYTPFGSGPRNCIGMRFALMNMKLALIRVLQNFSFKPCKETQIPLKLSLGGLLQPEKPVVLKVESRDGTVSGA
Method: as §1, §2, §3

With `O=C1/C(=C/c2cccc(Br)c2)CN(Cc2ccccc2)C/C1=C\c1cccc(Br)c1` [MC2884] the half-life [1] was 4.58 h, the IC50 (CYP2C19) was greater than 25 µM and the inhibition at 5 min, 25 µM (CYP3A4) was 45%.
